Source: the supplement of paper PMC10307832

Assays:
Assay in all cases: relative viability (nuclei count vs DMSO), 5 days (fraction); higher = more cells survive
AT-7519 + Vorinostat = compound: O=C(NC1CCNCC1)c1n[nH]cc1NC(=O)c1c(Cl)cccc1Cl [AT-7519] + O=C(CCCCCCC(=O)Nc1ccccc1)NO [Vorinostat] (partner 1 µM)
Summary of the method: (§1)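 Medians of duplicate plates are given as relative viability. That measure is the nuclei count in treated wells divided by the count in vehicle wells. Counts were taken on 4× images of lung cancer cell lines in 1536-well plates, 5 days after pin-tool dosing the day after seeding with one drug alone or a fixed anchor-drug dose plus five library-drug doses (not always all listed) in √10 steps.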

[1] = compound: C1=CC2=C(C=C(C(=C2N=C1)O)N=NC3=CC4=C(C=C3)C=C(C=C4)S(=O)(=O)O)S(=O)(=O)O + O=C(c1cc(Cc2n[nH]c(=O)c3ccccc23)ccc1F)N1CCN(C(=O)C2CC2)CC1 [Olaparib] (partner 8 µM)
Summary of the method: as §1

[2] = compound: C1=CC2=C(C=C(C(=C2N=C1)O)N=NC3=CC4=C(C=C3)C=C(C=C4)S(=O)(=O)O)S(=O)(=O)O + Nc1nc2[nH]cc(CCc3ccc(C(=O)N[C@@H](CCC(=O)O)C(=O)O)cc3)c2c(=O)[nH]1 [Pemetrexed] (partner 0.2 µM)
Summary of the method: as §1

AT-7519 + Pictilisib = compound: O=C(NC1CCNCC1)c1n[nH]cc1NC(=O)c1c(Cl)cccc1Cl [AT-7519] + CS(=O)(=O)N1CCN(Cc2cc3nc(-c4cccc5[nH]ncc45)nc(N4CCOCC4)c3s2)CC1 [Pictilisib] (partner 1 µM)
Summary of the method: as §1

Cell Line	relative viability (AT-7519 + Vorinostat; first compound 0.01 µM)	relative viability (AT-7519 + Vorinostat; first compound 0.03162 µM)	relative viability (AT-7519 + Vorinostat; first compound 0.3162 µM)	relative viability (AT-7519 + Vorinostat; first compound 1 µM)	relative viability ([1]; first compound 0.08 µM)	relative viability ([1]; first compound 0.253 µM)	relative viability ([1]; first compound 0.8 µM)	relative viability ([1]; first compound 2.53 µM)	relative viability ([1]; first compound 8 µM)	relative viability ([2]; first compound 0.08 µM)	relative viability ([2]; first compound 0.253 µM)	relative viability ([2]; first compound 0.8 µM)	relative viability ([2]; first compound 2.53 µM)	relative viability ([2]; first compound 8 µM)	relative viability (AT-7519 + Pictilisib; first compound 0.01 µM)	relative viability (AT-7519 + Pictilisib; first compound 0.03162 µM)	relative viability (AT-7519 + Pictilisib; first compound 0.3162 µM)	relative viability (AT-7519 + Pictilisib; first compound 1 µM)
NCI-H358	0.646	0.604	0.5	0.108	0.656	0.555	0.551	0.57	0.569	0.159	0.16	0.162	0.163	0.171	0.294	0.308	0.239	0.212
NCI-H441	0.838	0.834	0.796	0.693	0.617	0.57	0.586	0.531	0.595	0.251	0.27	0.246	0.26	0.297	0.448	0.452	0.468	0.161
NCI-H460	0.569	0.619	0.674	0.0847	0.537	0.356	0.444	0.43	0.425	0.0636	0.0585	0.066	0.0648	0.0698	0.346	0.446	0.37	0.286
NCI-H520	0.712	0.793	0.659	0.429	0.327	0.342	0.337	0.301	0.387	0.696	0.706	0.637	0.715	0.692	0.344	0.296	0.249	0.171
NCI-H596	0.584	0.611	0.471	0.697	0.7	0.798	0.639	0.746	0.747	0.557	0.452	0.52	0.493	0.486	0.389	0.433	0.414	0.347
NCI-H647	0.568	0.369	0.562	0.244	0.516	0.48	0.522	0.65	0.545	0.174	0.189	0.182	0.183	0.168	0.452	0.531	0.483	0.356
NCI-H650	0.504	0.459	0.46	0.599	0.458	0.404	0.386	0.384	0.402	1.04	0.922	0.956	0.936	0.791	0.868	0.851	0.84	0.672
